The record followed here is PubChem BioAssay AID2286 (Southern Research Specialized Biocontainment Screening …, 2010).

A short description of the test: viability loss in fusion assay cells – cell-based, MAGI and MAGI-HeLa co-culture, cytotoxicity control for HIV-1 fusion inhibitor project, dose response (AID 2286).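 On all read-outs here: cells exposed to compound for at least 64 h before ATP readout; 100% = median of DMSO vehicle wells with no ATP signal meaning 0%.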 Conditions: MAGI-CCR5 cells viability, CellTiter-Glo ATP luminescence; for minimum viability: measured here: MAGI minimum viability across doses.
[1] abbreviates: MAGI-HeLa co-culture viability, at 50 µM, stronger effect = lower value.
The mark [2] stands for this setting: at 3.13 µM, stronger effect = lower value.
[3] abbreviates: at 12.5 µM, stronger effect = lower value.
The mark [4] stands for this setting: at 1.56 µM, stronger effect = lower value.
[5] abbreviates: at 6.25 µM, stronger effect = lower value.
Where [6] appears, read: at 0.1 µM, stronger effect = lower value.

SMILES strings stand for the structures. Calls of active or inactive are those of the source.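 How the source made its calls: active means minimum cell viability of 80% or lower across the dose range, counted as toxic; inactive means minimum cell viability above 80%.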

Regarding `COc1cc(/C=N/Nc2ccc(Cl)c(C(=O)O)c2)ccc1OC(=O)c1ccccc1F`, the viability is 105% under setting [1] and 103% (inactive) (at 50 µM (top of the series)). Also, the minimum viability under setting [2] came to 95.8%.

Regarding `CC(C)S(=O)(=O)C1=NSC2=NC(=O)/C(=C\c3ccc(-c4cccc(C(=O)O)c4)o3)C(=N)N21`, the viability by setting is: under setting [1], 90.9%; (at 50 µM (top of the series)) 101% (inactive). Besides, the minimum viability under setting [2] turned out to be 85.2%.

As for `CCOc1cc(/C=N/N=C2/NC(=O)C(CC(=O)O)S2)ccc1OCc1ccc(Cl)cc1Cl` (stereo unspecified), the viability under setting [1] turned out to be 98.7% and the viability (at 50 µM (top of the series)) is 96% (inactive). The molecule also registered a minimum viability under setting [3] of 83.9%.

`Cc1c(Cl)cccc1NS(=O)(=O)c1ccc2c(c1)C1C=CCC1C(c1ccc(C(=O)O)cc1)N2` (stereo unspecified): the viability under setting [1] was found to be 121% and the viability (at 50 µM (top of the series)) is 91% (inactive). In addition, under setting [4], the minimum viability amounted to 87%.

For the molecule `Cc1ccc(-n2cccc2/C=C2/C(=N)N3C(=NC2=O)SN=C3S(C)(=O)=O)cc1Cl`, under setting [1], the viability is 96.7%. Besides, the minimum viability (at 50 µM, stronger effect = lower value) was 77.3%.

As to `CC(C)S(=O)(=O)C1=NSC2=NC(=O)/C(=C\c3ccc(-c4ccccc4)o3)C(=N)N21`, under setting [1], the viability is 123%. Moreover, for the setting “at 50 µM, stronger effect = lower value”, the minimum viability stood at 73.2%.

On to `COc1cc(/C=C2\SC(=Nc3ccccc3)N(CCc3c[nH]c4ccccc34)C2=O)ccc1OC(C)C(=O)O` (stereo unspecified), for which the viability was 103% under setting [1] and 101% (inactive) (at 25 µM (top of the series)). Under setting [5], this molecule registered a minimum viability of 95.5%.

As to `O=C(O)c1cc(-c2ccc(/C=C3\NC(=O)N(c4ccc(Cl)cc4)C3=O)o2)ccc1Cl`, the viability is 95.2% under setting [1] and 102% (inactive) (at 50 µM (top of the series)). Also, the minimum viability (at 0.78 µM, stronger effect = lower value) was 93.3%.

`CC1=NN(c2ccc(C(=O)O)cc2)C(=O)/C1=C\c1ccc(OC(=O)c2cccs2)cc1`: the viability under setting [1] turned out to be 120% and the viability (at 50 µM (top of the series)) was 94.8% (inactive). This molecule yielded a minimum viability under setting [4] of 93.5%.

In the case of `O=C(Nc1ccc(-c2nc3ccccc3[nH]2)cc1)c1ccccc1NS(=O)(=O)c1ccc(F)cc1`, under setting [1], the viability is 116%. The same molecule gave a minimum viability (at 50 µM, stronger effect = lower value) of 64.3%.

For `CS(=O)(=O)C1=NSC2=NC(=O)/C(=C\c3cccn3-c3ccc(Cl)cc3)C(=N)N21`, the viability was 93.6% under setting [1] and 88% (inactive) (at 50 µM (top of the series)). The same molecule gave a minimum viability (at 50 µM, stronger effect = lower value) of 88%.

Regarding `CCCOc1ccc(C(=O)NNC(=S)NC(=O)c2cc(-c3ccc(Cl)cc3)nc3ccccc23)cc1`, the viability reads like this: under setting [1], 89.5%; (at 50 µM (top of the series)) 98% (inactive). Under setting [2], this molecule returned a minimum viability of 87.2%.

For `CCCCCNC(=O)c1ccc2c(=O)[nH]c3c(C(=O)NCC4CCCO4)sc(=S)n3c2c1` (stereo unspecified), under setting [1], the viability was found to be 105%. In addition, the minimum viability (at 25 µM, stronger effect = lower value) was 69.3%.

With `CC(C)NC(=O)c1sc(=S)n2c1[nH]c(=O)c1ccc(C(=O)NCCc3ccc(Cl)cc3)cc12`, the viability under setting [1] was determined as 104%. This molecule yielded a minimum viability (at 50 µM, stronger effect = lower value) of 55.2%.

As for `O=C(O)COc1ccc(Br)cc1C(c1c(C(=O)O)[nH]c2ccccc12)c1c(C(=O)O)[nH]c2ccccc12`, the viability is 95.6% under setting [1] and 91.8% (inactive) (at 50 µM (top of the series)). The same molecule registered a minimum viability (at 25 µM, stronger effect = lower value) of 88%.

`COc1cc(/C=C2/C(=O)NN(c3ccc(Cl)cc3)C2=O)ccc1OC(=O)c1ccco1`: the viability was 115% under setting [1] and 96.4% (inactive) (at 50 µM (top of the series)). The minimum viability (at 50 µM, stronger effect = lower value) was 96.4%.

Consider `COc1ccc(OC)c(/C=C2\SC(=S)N(NS(=O)(=O)c3ccc(C)cc3)C2=O)c1`, for which the viability runs as follows: under setting [1], 107%; (at 50 µM (top of the series)) 101% (inactive). This molecule also gave a minimum viability under setting [4] of 90.5%.

For the molecule `CC(/C=C1\SC(=S)N(c2ccc(C(=O)O)cc2)C1=O)=C\c1ccccc1`, the viability is 88% under setting [1] and 99.7% (inactive) (at 50 µM (top of the series)). Besides, the minimum viability (at 0.39 µM, stronger effect = lower value) was determined as 96.6%.

As for `N#Cc1c(-c2cccs2)nc(SCc2ccc(Cl)cc2)[nH]c1=O`, the viability under setting [1] worked out at 118%. This molecule also yielded a minimum viability (at 50 µM, stronger effect = lower value) of 73%.

In the case of `O=C(O)c1[nH]c2ccccc2c1C(c1c(F)cccc1Cl)c1c(C(=O)O)[nH]c2ccccc12`, the viability under setting [1] amounted to 114% and the viability (at 50 µM (top of the series)) is 104% (inactive). In addition, under setting [6], the minimum viability turned out to be 87.9%.

As for `O=C(O)CSc1cc(C(=O)c2ccccc2O)cn2c(=O)c3c4c(sc3nc12)CCCC4`, the viability is 114% under setting [1] and 93.2% (inactive) (at 50 µM (top of the series)). This molecule had a minimum viability under setting [3] of 92.1%.

For `COc1cccc(-c2coc3c(C)c4oc(=O)c(CCC(=O)O)c(C)c4cc23)c1`, the viability under setting [1] is 83.6%. In addition, the minimum viability (at 50 µM, stronger effect = lower value) came to 55.5%.

As for `O=C(N/N=C/c1c(O)n(C2CCCCC2)c(=S)[nH]c1=O)c1ccccc1O`, the viability under setting [1] amounted to 84.7%. Further, the minimum viability (at 50 µM, stronger effect = lower value) was determined as 64.3%.

On to `CCc1nnc(NS(=O)(=O)c2ccc(NC(=O)/C=C/c3ccccc3Cl)cc2)s1`, for which the viability is 109% under setting [1] and 96.3% (inactive) (at 50 µM (top of the series)). For the same molecule, under setting [4], the minimum viability came out at 95.9%.

As for `COc1ccc(C(=O)COC(=O)c2ccccc2NS(=O)(=O)c2ccc(O)c([N+](=O)[O-])c2)cc1`, the viability reads like this: under setting [1], 96%; (at 50 µM (top of the series)) 83.3% (inactive). The minimum viability (at 50 µM, stronger effect = lower value) turned out to be 83.3%.

In the case of `N=C1/C(=C/c2ccc(-c3cccc(C(=O)O)c3)o2)C(=O)N=C2SC=C(c3ccccc3)N12`, the viability is 104% under setting [1] and 85.3% (inactive) (at 50 µM (top of the series)). This molecule returned a minimum viability (at 50 µM, stronger effect = lower value) of 85.3%.

As for `COc1ccc(NC(=O)c2c[nH]n3c(=O)cc(C4CCN(C(=O)OC(C)(C)C)CC4)nc23)cc1Cl`, the viability under setting [1] turned out to be 94.3% and the viability (at 50 µM (top of the series)) is 88.3% (inactive). Moreover, the minimum viability (at 50 µM, stronger effect = lower value) worked out at 88.3%.

Take `O=C(O)c1cccc2c(-c3ccccc3)c(-c3ccccc3)[nH]c12`: the viability is, setting by setting: under setting [1], 128%; (at 50 µM (top of the series)) 93.1% (inactive). Also, the minimum viability (at 50 µM, stronger effect = lower value) worked out at 93.1%.

For `CC(C)CS(=O)(=O)C1=NSC2=NC(=O)/C(=C\c3ccc(OC(=O)c4ccco4)cc3)C(=N)N21`, the viability runs as follows: under setting [1], 104%; (at 50 µM (top of the series)) 95.1% (inactive). Also, the minimum viability under setting [5] was 85.3%.

As for `COc1cc(/C=C2\C(=N)N3N=C(S(C)(=O)=O)SC3=NC2=O)ccc1OC(=O)c1cccs1`, the viability by setting is: under setting [1], 109%; (at 50 µM (top of the series)) 96.7% (inactive). The minimum viability (at 0.2 µM, stronger effect = lower value) is 86.5%.

For `COc1cc(/C=C2\C(=N)N3N=C(S(C)(=O)=O)SC3=NC2=O)cc(OC)c1OCCOc1ccc(C)cc1`, the viability is 111% under setting [1] and 101% (inactive) (at 50 µM (top of the series)). This molecule also gave a minimum viability (at 25 µM, stronger effect = lower value) of 98.3%.

Take `Cc1cc(N2C(=O)C(O)=C(C(=O)c3cc4ccccc4o3)C2c2cccc(Br)c2)no1` (stereo unspecified): the viability is 137% under setting [1] and 87.1% (inactive) (at 50 µM (top of the series)). For the same molecule, the minimum viability (at 25 µM, stronger effect = lower value) turned out to be 86.4%.

Regarding `CCCOc1ccc(C(=O)NNC(=S)NC(=O)c2cc(-c3ccccc3)nc3ccccc23)cc1`, the viability is, setting by setting: under setting [1], 112%; (at 50 µM (top of the series)) 105% (inactive). The same molecule came in with a minimum viability (at 25 µM, stronger effect = lower value) of 99%.

Turning to `O=C(O)CCCN1C(=O)/C(=C/c2ccc(-c3nc4ccccc4s3)o2)SC1=S`, the viability under setting [1] was 99.7% and the viability (at 50 µM (top of the series)) is 92.1% (inactive). The same molecule registered a minimum viability under setting [6] of 87.2%.

`Cc1cn2c(N)c(C=C3C=C(Cl)C(=O)C(Cl)=C3)c(=O)nc2s1`: the viability by setting is: under setting [1], 105%; (at 50 µM (top of the series)) 83.9% (inactive). Under “at 25 µM, stronger effect = lower value”, this molecule returned a minimum viability of 81.8%.

Turning to `O=C(CN1C(=O)/C(=C2\SC(=S)N(CCS(=O)(=O)O)C2=O)c2ccccc21)Nc1cccc(Br)c1`, the viability is, setting by setting: under setting [1], 113%; (at 50 µM (top of the series)) 83.3% (inactive). In addition, for the setting “at 50 µM, stronger effect = lower value”, the minimum viability turned out to be 83.3%.

Turning to `COc1cc(C(c2c(C(=O)O)[nH]c3ccccc23)c2c(C(=O)O)[nH]c3ccccc23)ccc1OCc1ccccc1`, the viability was 90.3% under setting [1] and 85.8% (inactive) (at 50 µM (top of the series)). The minimum viability under setting [3] was determined as 82.7%.

Turning to `COC(=O)c1sc(-c2ccc(C(C)(C)C)cc2)cc1NC(=O)c1ccccc1C(=O)O`, the viability under setting [1] came to 111%. Moreover, the minimum viability (at 50 µM, stronger effect = lower value) was 73.7%.

`Cc1cc(/C=c2\sc3nc4ccccc4n3c2=O)c(C)n1-c1ccc(C(=O)O)cc1`: the viability under setting [1] worked out at 89%. Under “at 50 µM, stronger effect = lower value”, this molecule displayed a minimum viability of 59.4%.

In the case of `COc1cc(/C=C2\S/C(=N/S(=O)(=O)c3ccc(C)cc3)NC2=O)c([N+](=O)[O-])cc1OC`, the viability is 98.5% under setting [1] and 98.6% (inactive) (at 50 µM (top of the series)). Where the note is “at 50 µM, stronger effect = lower value”, this molecule displayed a minimum viability of 98.6%.

On to `O=C1N=c2ccc(Br)cc2=C1c1sc(=S)n(NS(=O)(=O)c2ccccc2)c1O`, for which the viability by setting is: under setting [1], 89.2%; (at 50 µM (top of the series)) 102% (inactive). Under setting [2], the minimum viability was found to be 98.5%.

`O=C(O)COc1ccc(/C=N/NC(=O)c2ccc(-c3csc(Nc4ccc(Cl)cc4)n3)cc2)cc1`: the viability runs as follows: under setting [1], 96.5%; (at 50 µM (top of the series)) 96.8% (inactive). Where the note is “at 25 µM, stronger effect = lower value”, this molecule had a minimum viability of 83.4%.

What is called viability is a read-out of living cells in per cent, often relative to untreated cells.
